Assay results taken from US20050107430A1, “Antimicrobial and antiviral compounds” (priority 2003, published 2005).
≈ marks a conversion by molar mass, not a printed value. Read-outs that look alike come from different tables or passages of the source.

System: Mycobacterium tuberculosis
Details: resistant strains

c1ccc2c(c1)ccc1c3ccc(NCCCCN4CCCCC4)cc3ccc21 [Tx-5, N-(2′-chrysenyl)-4-(1′-piperidinyl)-butane-1,4-diamine]
MIC, M. tuberculosis resisant. strains (2 wk): 2 µg/mL (≈ 5.23 µM)
MIC, M. tuberculosis resisant. strains (4 wk): 4 µg/mL (≈ 10.5 µM)
